Assay results taken from ChEMBL document CHEMBL4229381, “New cytokinin derivatives possess UVA and UVB photoprotective effect on human skin cells and prevent oxidative stress” (Eur J Med Chem, 2018).
Activity calls are given as the source filed them. The rule behind the calls is not given here.

How the values were obtained:
[1] = Phototoxicity in human NHDF cells assessed as cell viability at 7.8 uM preincubated for 60 mins followed by 5 J/cm2 UVA irradiation and measured after 24 hrs by neutral red uptake assay relative to control; format: cell-based; conditions: read-out: Activity
[2] = Phototoxicity in human NHDF cells assessed as cell viability at 62.5 uM preincubated for 60 mins followed by 5 J/cm2 UVA irradiation and measured after 24 hrs by neutral red uptake assay relative to control; format: cell-based; conditions: read-out: Activity
[3] = Phototoxicity in human HaCaT cells assessed as cell viability at 125 uM preincubated for 60 mins followed by 7.5 J/cm2 UVA irradiation and measured after 24 hrs by neutral red uptake assay relative to control; format: cell-based; conditions: read-out: Activity
[4] = Phototoxicity in human NHDF cells assessed as cell viability at 125 uM preincubated for 60 mins followed by 5 J/cm2 UVA irradiation and measured after 24 hrs by neutral red uptake assay relative to control; format: cell-based; conditions: read-out: Activity
[5] = Cytotoxicity in human HaCaT cells assessed as cell viability at 125 uM after 24 hrs by neutral red uptake assay relative to control; format: cell-based; conditions: read-out: Activity
[6] = Phototoxicity in human NHDF cells assessed as cell viability at 15.6 uM preincubated for 60 mins followed by 5 J/cm2 UVA irradiation and measured after 24 hrs by neutral red uptake assay relative to control; format: cell-based; conditions: read-out: Activity
HaCaT [7] = test: Potency index, ratio of compound effect to rosmarinic acid effect for cytoprotection against phototoxicity in human HaCaT cells assessed as increase in cell viability at 3.9 uM preincubated for 60 mins followed by 150 mJ/cm2 UVB irradiation and measured after 24 hrs by neutral red uptake assay; format: functional
HaCaT [8] = test: Potency index, ratio […] for cytoprotection against phototoxicity in human HaCaT cells assessed as increase in cell viability at 3.9 preincubated for 60 mins followed by 150 mJ/cm2 UVB irradiation and measured after 24 hrs by neutral red uptake assay; format: functional
[9] = Cytotoxicity in human NHDF cells assessed as cell viability at 3.9 uM after 24 hrs by neutral red uptake assay relative to control; format: cell-based; conditions: read-out: Activity
Nicotiana tabacum = test: Growth promoting activity in tobacco callus assessed as callus weight at 10^-5 mol/L after 4 weeks relative to control; format: functional
HaCaT [10] = test: Cytoprotection against phototoxicity in human HaCaT cells assessed as increase in cell viability at 3.9 uM preincubated for 60 mins followed by 10 J/cm2 UVA irradiation and measured after 24 hrs by neutral red uptake assay; format: functional, cell-based
[11] = Phototoxicity in human HaCaT cells assessed as cell viability at 15.6 uM preincubated for 60 mins followed by 7.5 J/cm2 UVA irradiation and measured after 24 hrs by neutral red uptake assay relative to control; format: cell-based; conditions: read-out: Activity
[12] = Phototoxicity in human NHDF cells assessed as cell viability at 31.3 uM preincubated for 60 mins followed by 5 J/cm2 UVA irradiation and measured after 24 hrs by neutral red uptake assay relative to control; format: cell-based; conditions: read-out: Activity
[13] = Cytotoxicity in human HaCaT cells assessed as cell viability at 62.5 uM after 24 hrs by neutral red uptake assay relative to control; format: cell-based; conditions: read-out: Activity
HaCaT [14] = test: Cytotoxicity in human HaCaT cells assessed as reduction in cell viability at 50 uM after 24 hrs by resazurin dye-based fluorescence assay relative to control
[15] = Phototoxicity in human NHDF cells assessed as cell viability at 3.9 uM preincubated for 60 mins followed by 5 J/cm2 UVA irradiation and measured after 24 hrs by neutral red uptake assay relative to control; format: cell-based; conditions: read-out: Activity
Amaranthus caudatus = test: Growth promoting activity in Amaranthus caudatus var. atropurpurea seeds by measuring betacyanin at 10^-4 mol/L after 48 hrs relative to control; format: functional
[16] = Antioxidant activity assessed as trolox equivalent of AAPH-induced radical scavenging activity at 1 uM pretreated for 15 mins followed by […] challenge measured every 3 mins over 90 mins by ORAC-FL assay; format: functional
HaCaT [17] = test: Cytoprotection against phototoxicity in human HaCaT cells assessed as increase in cell viability at 3.9 to 31.3 uM preincubated for 60 mins followed by 150 mJ/cm2 UVB irradiation and measured after 24 hrs by neutral red uptake assay; format: functional, cell-based
[18] = Phototoxicity in human HaCaT cells assessed as cell viability at 3.9 uM preincubated for 60 mins followed by 7.5 J/cm2 UVA irradiation and measured after 24 hrs by neutral red uptake assay relative to control; format: cell-based; conditions: read-out: Activity
[19] = Cytotoxicity in human HaCaT cells assessed as cell viability at 3.9 uM after 24 hrs by neutral red uptake assay relative to control; format: cell-based; conditions: read-out: Activity
[20] = Cytotoxicity in human HaCaT cells assessed as cell viability at 7.8 uM after 24 hrs by neutral red uptake assay relative to control; format: cell-based; conditions: read-out: Activity
[21] = Phototoxicity in human HaCaT cells assessed as cell viability at 31.3 uM preincubated for 60 mins followed by 7.5 J/cm2 UVA irradiation and measured after 24 hrs by neutral red uptake assay relative to control; format: cell-based; conditions: read-out: Activity
[22] = Cytotoxicity in human NHDF cells assessed as cell viability at 15.6 uM after 24 hrs by neutral red uptake assay relative to control; format: cell-based; conditions: read-out: Activity
[23] = Cytotoxicity in human HaCaT cells assessed as cell viability at 31.3 uM after 24 hrs by neutral red uptake assay relative to control; format: cell-based; conditions: read-out: Activity
[24] = Cytotoxicity in human HaCaT cells assessed as cell viability at 15.6 uM after 24 hrs by neutral red uptake assay relative to control; format: cell-based; conditions: read-out: Activity
BJ = test: Cytotoxicity in human BJ cells assessed as reduction in cell viability at 50 uM after 24 hrs by resazurin dye-based fluorescence assay relative to control
[25] = Phototoxicity in human HaCaT cells assessed as cell viability at 62.5 uM preincubated for 60 mins followed by 7.5 J/cm2 UVA irradiation and measured after 24 hrs by neutral red uptake assay relative to control; format: cell-based; conditions: read-out: Activity
[26] = Cytotoxicity in human NHDF cells assessed as cell viability at 62.5 uM after 24 hrs by neutral red uptake assay relative to control; format: cell-based; conditions: read-out: Activity
[27] = Cytotoxicity in human NHDF cells assessed as cell viability at 7.8 uM after 24 hrs by neutral red uptake assay relative to control; format: cell-based; conditions: read-out: Activity
[28] = Phototoxicity in human HaCaT cells assessed as cell viability at 7.8 uM preincubated for 60 mins followed by 7.5 J/cm2 UVA irradiation and measured after 24 hrs by neutral red uptake assay relative to control; format: cell-based; conditions: read-out: Activity
[29] = Cytotoxicity in human NHDF cells assessed as cell viability at 125 uM after 24 hrs by neutral red uptake assay relative to control; format: cell-based; conditions: read-out: Activity
[30] = Cytotoxicity in human NHDF cells assessed as cell viability at 31.3 uM after 24 hrs by neutral red uptake assay relative to control; format: cell-based; conditions: read-out: Activity
NHDF [31] = test: Cytoprotection against phototoxicity in human NHDF cells assessed as increase in cell viability at 3.9 to 31.3 uM preincubated for 60 mins followed by 150 mJ/cm2 UVB irradiation and measured after 24 hrs by neutral red uptake assay; format: functional, cell-based
Triticum aestivum = test: Anti-senescent activity in leaf of Triticum aestivum cv. Hereward seedlings by measuring chlorophyll retention at 10^-4 mol/L after 4 days relative to control; format: functional
[32] = Stability of the compound in pH 7 solution at 10^-4 M after 24 hrs by HPLC analysis; format: physicochemical; conditions: read-out: Stability
[33] = Stability of the compound in pH 4 solution at 10^-4 M after 1 hr by HPLC analysis; format: physicochemical; conditions: read-out: Stability
[34] = Stability of the compound in pH 6 solution at 10^-4 M after 24 hrs by HPLC analysis; format: physicochemical; conditions: read-out: Stability
[35] = Stability of the compound in pH 5 solution at 10^-4 M after 1 hr by HPLC analysis; format: physicochemical; conditions: read-out: Stability
[36] = Stability of the compound in pH 3 solution at 10^-4 M after 1 hr by HPLC analysis; format: physicochemical; conditions: read-out: Stability
[37] = Stability of the compound in pH 3 solution at 10^-4 M after 24 hrs by HPLC analysis; format: physicochemical; conditions: read-out: Stability
[38] = Stability of the compound in pH 7 solution at 10^-4 M after 1 hr by HPLC analysis; format: physicochemical; conditions: read-out: Stability
[39] = Stability of the compound in pH 4 solution at 10^-4 M after 24 hrs by HPLC analysis; format: physicochemical; conditions: read-out: Stability
[40] = Stability of the compound in pH 6 solution at 10^-4 M after 1 hr by HPLC analysis; format: physicochemical; conditions: read-out: Stability
[41] = Stability of the compound in pH 5 solution at 10^-4 M after 24 hrs by HPLC analysis; format: physicochemical; conditions: read-out: Stability
HaCaT [42] = test: Phototoxicity in human HaCaT cells assessed as reduction in cell viability preincubated for 60 mins followed by 7.5 J/cm2 UVA irradiation and measured after 24 hrs by neutral red uptake assay; format: cell-based; conditions: light or radiation study
NHDF [43] = test: Phototoxicity in human NHDF cells assessed as reduction in cell viability preincubated for 60 mins followed by 5 J/cm2 UVA irradiation and measured after 24 hrs by neutral red uptake assay; format: cell-based; conditions: light or radiation study

For `Clc1nc(NCC2CCCO2)c2ncn(C3CCCO3)c2n1` (stereo unspecified), the viability at 24 h, 7.8 µM [1] was 103%, the viability at 24 h, 62.5 µM [2] was 105% and the viability at 24 h, 125 µM [3] was 126%. It also gave a viability at 24 h, 125 µM [4] of 105%, a viability at 24 h, 125 µM [5] of 111% and a viability at 24 h, 15.6 µM [6] of 100%. It also gave a Ratio (HaCaT [7]) greater than 2, a Ratio (HaCaT [8]) greater than 2 and a viability at 24 h, 3.9 µM [9] of 103%. For the same compound, the Activity (Nicotiana tabacum) was 104%, the Activity (HaCaT [10]) was “inactive” and the viability at 24 h, 15.6 µM [11] was 110%. For the same compound, the viability at 24 h, 31.3 µM [12] was 103%, the viability at 24 h, 62.5 µM [13] was 111% and the Activity (HaCaT [14]) was less than 10%. The viability at 24 h, 3.9 µM [15] was 100%, the Activity (Amaranthus caudatus) was 83% and the Activity [16] was less than 0.05 equiv. For the same compound, the Activity (HaCaT [17]) was “Active”, the viability at 24 h, 3.9 µM [18] was 105% and the viability at 24 h, 3.9 µM [19] was 104%. It also gave a viability at 24 h, 7.8 µM [20] of 103%, a viability at 24 h, 31.3 µM [21] of 121% and a viability at 24 h, 15.6 µM [22] of 101%. The viability at 24 h, 31.3 µM [23] was 109%, the viability at 24 h, 15.6 µM [24] was 104% and the Activity (BJ) was less than 10%. It also gave a viability at 24 h, 62.5 µM [25] of 126%, a viability at 24 h, 62.5 µM [26] of 102% and a viability at 24 h, 7.8 µM [27] of 103%. It also gave a viability at 24 h, 7.8 µM [28] of 112%, a viability at 24 h, 125 µM [29] of 104% and a viability at 24 h, 31.3 µM [30] of 106%. For the same compound, the Activity (NHDF [31]) was “Active” and the Activity (Triticum aestivum) was 111%.
`c1nc(NCC2CCCO2)c2ncn(C3CCCO3)c2n1` (stereo unspecified) showed a remaining at 24 h, 100 µM [32] of 100%, a remaining at 1 h, 100 µM [33] of 100% and a remaining at 24 h, 100 µM [34] of 100%. It also gave a remaining at 1 h, 100 µM [35] of 100%, an Activity (Nicotiana tabacum) of 100% and a remaining at 1 h, 100 µM [36] of 94.3%. It also gave an Activity (Amaranthus caudatus) of 38%, an Activity [16] of less than 0.05 equiv and a remaining at 24 h, 100 µM [37] of 0.4%. It also gave a remaining at 1 h, 100 µM [38] of 100%, a remaining at 24 h, 100 µM [39] of 44.3% and a remaining at 1 h, 100 µM [40] of 100%. The remaining at 24 h, 100 µM [41] was 92.6% and the Activity (Triticum aestivum) was 116%.
Compound `CN(C)CCCN1c2ccccc2Sc2ccc(Cl)cc21` [CHLORPROMAZINE] has an IC50 (HaCaT [42]) of 36.1 µM and an IC50 (NHDF [43]) of 25.5 µM.
